Literature values, collected in the CATMoS acute toxicity set (Mansouri et al. 2021).
“And” between values parts separate entries of the source, which are not always exact repeats. Equal values may be shown once.

Experiment: rat acute oral toxicity
Settings: in vivo
Excerpt: […]The data set underlying the modeling effort for this project was initially compiled by NICEATM and U.S. EPA’s CCTE. Briefly, LD50 data were collected from rat acute oral systemic toxicity tests, including limit tests, ranges/confidence intervals, and discrete LD50 values. The full data set included 21,200 LD50 entries for 15,688 substances. […] Data were reviewed to ensure that LD50 values with obvious errors in the extracted data such as unit conversion errors (e.g., comma and decimal separator misplacements) were either fixed or removed. After this review, 16,209 LD50 values remained. Many of the chemicals represented had multiple LD50 entries, requiring that a single representative value per Chemical Abstracts Service Registry Number (CASRN) identifier be defined to facilitate modeling efforts. Based on ATWG feedback and to define the representative LD50 as a protective value while accounting for the distribution across multiple LD50s, the median of the lowest quartile was computed using only discrete LD50 values (omitting limit test data and range and confidence interval data). A detailed summary of the data compilation is available online on the NICEATM webpage dedicated to the collaborative modeling project (NTP 2020).
[…][…] For categorical designations, limit test and range/confidence interval LD50 data were integrated wherever possible. As such, the number of chemicals with end point values/calls varies across the modeling end points (Table 3) based on whether chemicals had representative LD50 values and/or other data. If a chemical had both, the representative value was used to determine categorical calls rather than limit test data. Some data were useable only for certain end points and categories depending on the thresholds. For example, ranges that spanned multiple hazard categories were considered only for the binary (very toxic/nontoxic) end points and omitted from rendering a determination for hazard category assignment.
[…]The final data set comprising 11,992 chemicals was split into training and evaluation sets […], respectively. This process was performed semirandomly by ordering chemicals based on the five end points (categorical and continuous LD50 values) and partitioning every fourth record into the evaluation set accordingly. This approach was taken to ensure an equivalent distribution of the LD50 values and the different hazard categories between the training and the evaluation sets without supervised sampling of the chemicals based on structures (Figure 1A). The sources of the chemical structures were also kept equivalent between the two sets, with chemical structures obtained from DSSTox, being the highest quality, representing over 75% of each set (Figure 1B).

| SMILES | LD50 |
| --- | --- |
| CCCCN(CCCC)N=O | 1200 mg/kg |
| CCOC(=O)C(CC)(C(=O)NCCN(CC)CC)c1ccccc1 (stereo not given) | 610 mg/kg |
| CC(C)(C)c1cc(CCC(=O)OCCSCCOC(=O)CCc2cc(C(C)(C)C)c(O)c(C(C)(C)C)c2)cc(C(C)(C)C)c1O | 6300 mg/kg |
| CCCCCCOCCO | 830 mg/kg |
| S=P(OCCCl)(OCCCl)OCCCl | 820 mg/kg |
| Cc1ccc(CC(C)N)cc1 (stereo not given) | 150 mg/kg |
| CCOc1cc(OCC)c(C(=O)CCC(=O)O)cc1OCC | 2450 mg/kg |
| COc1ccc(C(=C(c2ccccc2)[N+](=O)[O-])c2ccc(OCCN3CCCC3)cc2)cc1 | 1780 mg/kg |
| CC(=O)OCc1ccc2c(c1)OCO2 | 2100 mg/kg |
| CC(C)(C)N(CCO)CCO | 2720 mg/kg |
| Cc1ccc(N=CN(C)SN(C)C=Nc2ccc(C)cc2C)c(C)c1 | 300 mg/kg |
| OC(Cn1cncn1)(Cn1cncn1)c1ccc(F)cc1F | 1270 mg/kg |
| CCOP(=O)(O)C(N)=O | 10100 mg/kg |
| Cc1c(N(C)CS(=O)(=O)O)c(=O)n(-c2ccccc2)n1C | 3000 mg/kg |
| O=C(O)c1cc(S(=O)(=O)O)ccc1O | 1850 mg/kg |
| CCCCCCCCCCCC[N+](C)(C)CC(O)CCl (stereo not given) | 1070 mg/kg |
| C=CCOC(=O)CCC | 250 mg/kg |
| CCN(CC)C(=O)c1ccc(O)c(OC)c1 | 154 mg/kg |
| NS(=O)(=O)c1cc2c(cc1Cl)NC(CC1CCCC1)NS2(=O)=O (stereo not given) | 1000 mg/kg |
| C=CC[C@@H]1C=C(C)C[C@H](C)C[C@H](OC)[C@H]2O[C@@](O)(C(=O)C(=O)N3CCCC[C@H]3C(=O)O[C@H](C(C)=C[C@@H]3CC[C@@H](O)[C@H](OC)C3)[C@H](C)[C@@H](O)CC1=O)[C@H](C)C[C@@H]2OC | 134 mg/kg |

| SMILES | LD50 |
| --- | --- |
| O=C(O)C1C(C(=O)O)C2(Cl)C(Cl)=C(Cl)C1(Cl)C2(Cl)Cl (stereo not given) | 1770 mg/kg |
| CN(N=O)c1ccccn1 | 60 mg/kg |
| O=Cc1cccs1 | 915 mg/kg |
| CO[C@H]1CC[C@H](O[C@@]2(C)[C@H](C[C@@H]3C[C@@H](OC)[C@@H](C)[C@]4(O3)O[C@](C)(C3CC[C@@H]([C@H]5CC[C@H](C6O[C@](C)(O)[C@H](C)C[C@@H]6C)O5)O3)[C@H](OC)[C@H]4C)O[C@](O)([C@@H](C)C(=O)O)[C@H](C)[C@@H]2OC)O[C@@H]1C (stereo not given in full) | 10 mg/kg |
| COc1ccccc1C=Nc1ccccc1C(=O)O | 1500 mg/kg |
| CNC(=S)NCCSCc1nc[nH]c1C | 1490 mg/kg |
| CC(=O)NC(=O)N(C)N=O | 200 mg/kg |
| CCCCCCCCCC(=O)OC1(c2ccc(Cl)cc2)CCN(CCCC(=O)c2ccc(F)cc2)CC1 | 1720 mg/kg |
| O=c1oc2cc(Cl)ccc2n1CCl | 2350 mg/kg |
| N#CCCCCC(=O)O | 1000 mg/kg |
| CNCC12CCC(c3ccccc31)c1ccccc12 | 700 mg/kg and 600 mg/kg |
| O=NN(CCCl)C(O)=NC1C[C@H]2CC[C@@H]1C2 (stereo not given in full) | 83 mg/kg |
| Cc1ccccc1C(C)c1ccccc1 (stereo not given) | 1750 mg/kg |
| Cc1cc(CC(C)CC(C)(C)C)oc(=O)c1 (stereo not given) | 1480 mg/kg |
| COc1ccc(CN2CCNCC2)c(OC)c1OC | 1700 mg/kg |
| O=C(c1ccc2c(c1)C(=O)OC2=O)c1ccc2c(c1)C(=O)OC2=O | 12800 mg/kg |
| CCCCO[Si](OCCCC)(OCCCC)N(C)C1CCCCC1 | 3550 mg/kg |
| C=CCC1(C(C)SCCCC)C(=O)N=C(O)NC1=O (stereo not given) | 639 mg/kg |
| O=S(=O)(Cl)CCCl | 240 mg/kg |
| O=C(c1ccccc1)N1CCN=C1Nc1c(Cl)cccc1Cl | 68.1 mg/kg |

| SMILES | LD50 |
| --- | --- |
| CNCc1cccc2ccccc12 | 50 mg/kg |
| CCC(C)c1cc([N+](=O)[O-])cc([N+](=O)[O-])c1OC(C)=O (stereo not given) | 60 mg/kg |
| CNC(=O)ON=C1C(Cl)C2CC(C#N)C1C2 (stereo not given) | 24 mg/kg |
| CCC(C)(C)c1ccc(OCCCCN)c(C(C)(C)CC)c1 | 800 mg/kg |
| COP(=O)(OC)ON1C(=O)c2cccc3cccc(c23)C1=O | 70 mg/kg |
| CCCCCCCCCc1cccc(OCCOCC(=O)O)c1 | 880 mg/kg |
| Clc1cccc(C2CCCCC2)c1Cl | 4750 mg/kg |
| CCCCN(C)N=O | 130 mg/kg |
| CCOC(C)C#N (stereo not given) | 2860 mg/kg |
| O=C(O)C1CCc2cc(C3CCCCC3)c(Cl)cc21 (stereo not given) | 41 mg/kg and 35 mg/kg |
| COC(=O)/C=C(/CC(=O)OC)OP(=O)(OC)OC | 31 mg/kg |
| O[C@H]([C@H](O)[C@@H]1CO1)[C@H]1CO1 (racemic) | 14 mg/kg |
| CCCCCCCCCCCCCCCCCC(=O)NC(CCC(=O)O)C(=O)O (stereo not given) | 3000 mg/kg |
| COCCl | 500 mg/kg |
| OCCSSCCO | 173 mg/kg |
| CC(C=O)=Cc1ccccc1 | 2050 mg/kg |
| CCC(=O)OC1(c2ccccc2)CCN(C)CC1CC (stereo not given) | 175 mg/kg |
| COc1ccc2cc(C(C)C(=O)OCC(O)CO)ccc2c1 (stereo not given) | 1630 mg/kg |
| CC(C)=CC1C(C(=O)O)C1(C)C (stereo not given) | 2500 mg/kg |
| CNNCc1ccc(C(=O)NC(C)C)cc1 | 570 mg/kg |
